# Experiments:
# [1] = biological target: T1, recombinant mouse CD38 Protein (Mus musculus, UniProt P56528); test: Fluorescence-based NAD+ hydrolase activity assay with mouse recombinant CD38 protein (Assay 5); assay type: biochemical; conditions: read-out: Assay 5 Arithmetic mean IC50
# T1 construct: purchased R&D System
# T1 sequence (P56528 1-304): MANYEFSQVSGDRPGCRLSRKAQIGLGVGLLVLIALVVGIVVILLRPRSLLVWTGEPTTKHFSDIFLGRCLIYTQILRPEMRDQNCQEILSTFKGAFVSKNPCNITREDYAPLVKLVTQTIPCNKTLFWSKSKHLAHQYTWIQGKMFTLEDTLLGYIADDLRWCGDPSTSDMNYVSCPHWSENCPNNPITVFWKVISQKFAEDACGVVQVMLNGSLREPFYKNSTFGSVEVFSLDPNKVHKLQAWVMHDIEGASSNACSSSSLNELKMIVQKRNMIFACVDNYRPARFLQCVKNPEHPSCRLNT
# Outline: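 Recombinant mouse CD38 (2.5 ng/well) in 0.25 M sucrose, 40 mM Tris pH 7.4, with compound at 8 final concentrations from 400 nM to 25.6 pM; reaction started with 80 µM etheno-NAD+. Fluorescence (ex 321, em 410 nm) read each minute for 1 h at 37 °C; activity as linear slope, IC50 from 3 independent experiments.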
# [2] = biological target: T2, recombinant human CD38 Protein (Homo sapiens, UniProt P28907); test: Fluorescence-based NAD+ cyclase activity assay with human recombinant CD38 protein (Assay 2); assay type: biochemical; conditions: read-out: Assay 2 Arithmetic mean IC50
# T2 construct: purchased R&D System
# T2 sequence (P28907 1-300): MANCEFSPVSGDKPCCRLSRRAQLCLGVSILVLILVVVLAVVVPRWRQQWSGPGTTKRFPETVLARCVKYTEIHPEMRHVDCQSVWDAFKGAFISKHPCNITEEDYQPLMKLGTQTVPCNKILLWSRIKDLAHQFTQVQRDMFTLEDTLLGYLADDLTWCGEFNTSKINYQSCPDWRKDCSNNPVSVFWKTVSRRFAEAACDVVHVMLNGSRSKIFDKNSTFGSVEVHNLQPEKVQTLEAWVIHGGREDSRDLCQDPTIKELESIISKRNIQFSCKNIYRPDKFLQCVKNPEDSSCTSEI
# Experimental: This protocol was modified from the de Oliveira et al., 2018 reference, supra.
# NAD+ cyclase activity of the human recombinant CD38 protein treated with test compounds was measured using a fluorescence-based assay. Briefly, recombinant human CD38 Protein (R&D System) was resuspended in 44 μl/well of Sucrose-Tris Buffer (Sucrose 0.25 M, Tris pH 7.4 40 mM) and plated in a 96-well black plate (CORNING) at a density of 125 ng/well.
# Each test compound was received in a powder state and dissolved in DMSO as a 25 mM stock solution. Each test compound was serially diluted in order to generate a dose-response curve. The dilution series of each test compound in DMSO was prepared at 50 times the concentrations to be assayed. Each test compound was diluted to generate a 5-fold dilution series of 8 concentrations from 100 μM to 32 nM in order to assay 8 final concentrations ranging from 2 μM to 0.64 nM. One μl of the 50× concentration compound series was added to each well of the plate containing 125 ng of protein in Sucrose-Tris buffer.
# The reaction was started adding nicotinamide guanine dinucleotide (NGD+) (Sigma Aldrich) to reach a final concentration of 150 µM. The samples were excited at 337-15 nm, and the emission of fluorescence was measured at 442-20 nm at 37° C. every minute for 1 hr in a Clariostar microplate reader (BMG LABTECH). NAD+ cyclase activity was calculated as the slope of the linear portion of the fluorescence-time curve using the MARS data analysis software (BMG LABTECH). The data were uploaded in the Collaborative Drug Design (CDD) Software, and for each compound the IC50 was calculated by the software. For each plate, the z-factor was also calculated as a plate quality using the CDD software.
Structure (SMILES),IC50 [1] [nM],IC50 [2] [nM]
Cc1cc(C(=O)Nc2cccnc2)nc(-n2ccnc2)c1 [Compound 53],< 1,51 to 1000
"Cc1cc(C(=O)Nc2ccc(C(N)=O)nc2)nc(-n2ccnc2)c1 [Compound 54, N-(6-carbamoylpyridin-3-yl)-6-(1H-imidazol-1-yl)-4-methylpicolinamide]",< 1,1 to 50
Cc1cc(C(=O)Nc2ccnc(C(N)=O)c2)nc(-n2ccnc2)c1 [Compound 55],< 1,51 to 1000
CNC(=O)c1cc(NC(=O)c2cc(C)cc(-n3ccnc3)n2)ccn1 [Compound 56],< 1,51 to 1000
CNC(=O)c1ccc(NC(=O)c2cc(C)cc(-n3ccnc3)n2)cn1 [Compound 57],< 1,1 to 50
"Cc1ccc(-n2ccnc2)nc1C(=O)Nc1cccnc1 [Compound 59, 6-(1H-imidazol-1-yl)-3-methyl-N-(pyridin-3-yl)picolinamide]",1 to 50,51 to 1000
O=C(Nc1cccnc1)c1ccc(F)c(-n2ccnc2)n1 [Compound 61],1 to 50,1000 to 10000
O=C(Nc1cccnc1)c1nc(-n2ccnc2)ccc1F [Compound 62],1 to 50,1000 to 10000
Nc1cc(C(=O)Nc2cccnc2)nc(-n2ccnc2)c1 [Compound 67],1 to 50,51 to 1000

# Source: patent US12509451B2, “Heteroaryl amide inhibitors of CD38” (NAPA THERAPEUTICS LTD., priority 2020, dated 2025)
